From PMC5839409, “Targeting intracellular B2 receptors using novel cell-penetrating antagonists to arrest growth and induce apoptosis in human triple-negative breast cancer” (Oncotarget, 2018)

Legend:
MDA-MB-231 cells [1] = experiment: cDNA SuperArray Human Signal Transduction Pathway Finder analysis; format: cell-based; details: 10 μM / 3h, relative to untreated controls
Description: cDNA SuperArray analysis manufacturer ’s instructions (SuperArray Bioscience). For cDNA microarray analysis, equal amounts of cRNA (3
The GEArray Q-series array of Human Signal µg) were biotinylated, then the probes were hybridized Transduction Pathway Finder (catalog OHS-014; onto the membranes containing specific genes for several SuperArray Bioscience) was used to quantify the transduction pathways. After extensive washing, specific expression of 113 genes representative of 18 signal hybridization onto the membranes was detected by transduction pathways. […] A […]
cells were incubated or not with FR173657 (10 µM) in fold change cutoff of ≥1.5 as compared to control cells DMEM for 3 hours at 37°C. At the end of treatments, cells was set to identify regulated genes. were collected, lysed and total RNA was purified using an ArrayGrade Total RNA Isolation kit according to the Supplementary Table 1: Marked gene expression changes in FR173657-treated MDA-MB-231 cells relative to untreated controls
Description GenBank acc. Symbol Fold change
NLR family, apoptosis inhibitory protein NM_004536 NAIP 1,50
Cyclin-dependent kinase inhibitor 1B (p27, Kip1) NM_004064 CDKN1B 1,70
Cyclin-dependent kinase inhibitor 2B (p15, inhibits CDK4) NM_004936 CDKN2B 1,80 Cyclin-dependent kinase inhibitor 2C (p18, inhibits CDK4) NM_078626 CDKN2C 2,20 Caudal type homeobox transcription factor 1 NM_001804 CDX1 1,80
CCAAT/enhancer binding protein (C/EBP), beta NM_005194 CEBPB 1,70 […]
Platelet/endothelial cell adhesion molecule (CD31 antigen) NM_000442 PECAM1 3,90 Nitric oxide synthase 2A (inducible, hepatocytes) NM_000625 NOS2A –1,50 […]
Overall, the data generated from the transcriptional profiling study are, in general, in good agreement with the strong anticancer activity of FR173657 observed in MDA-MB-231 cells.

MDA-MB-231 cells [2] = experiment: Anchorage-dependent clonogenic assay; format: cell-based, human; details: 1 to 100 µM (FR173657 up to 25 µM), 10-14 days
Protocol: MDA-MB-231 cells were plated at 200 cells/well in a six-well dish in 2 ml DMEM medium containing 10% FBS. […] After 10 to 14 days, colonies were fixed and stained with 0.5% methylene blue in 50% ethanol. Excess of staining solution was removed carefully with tap water and the plates were dried overnight. Colony counting and densitometric analyses (to measure total colony numbers and surface areas) were performed using the Image Pro Plus 5.1 software.

MDA-MB-231 cells [3] = experiment: PI staining cell cycle analysis by flow cytometry; format: cell-based, human; details: 24 h treatment; HOE 140 up to 100 μM
Protocol: MDA-MB-231 were plated at 500,000/plate in 10 cm plates containing medium (10% FBS/DMEM), and allowed to adhere for about 18 h. Thereafter, cells were serum-starved and treated with and without the B2RAs at the indicated concentrations for 24 h. At the end of treatments, cells were harvested, rinsed and fixed with ice cold ethanol 95%, for 2 h at 4°C. Fixed cells were rehydrated with 800 µl PBS for 30 min, and then washed again with PBS to remove all traces of ethanol. Cells were treated with RNase for 30 min prior to staining. PI was added to cell suspension at a concentration of 15 µg/ml and incubated overnight at 4°C. PI staining was assessed by flow cytometry using a FACSCanto II flow cytometer (BD Biosciences).

MDA-MB-231 cells [4] = experiment: MTT proliferation assay; format: cell-based, human; details: B2R shRNA knockdown MDA-MB-231 cells vs scrambled shRNA
Protocol: (§1) Cell proliferation assay on MDA-MB-231 cells was determined with colorimetric MTT as we described. Briefly, cells were seeded in a 96 wells plate at 2,000 cells/well in DMEM media supplemented with 10% FBS for 24h at 37°C. Cells were then incubated with and without the B2RAs at the indicated concentrations for the time shown. At the end of treatment period, MTT (0.25 mg/ml) was added to the cells and incubated for 1h30 at 37°C. Thereafter, the cell medium was removed, the formazan product solubilized in acidified isopropanol (100 µl of 1N HCl/anhydrous isopropanol 1:25) and the absorbance determined at 570 nm with an ELISA microplate reader (Spectra Max Plus, Molecular Devices, Sunnyvale, CA). For assessing the cytotoxicity of B2RAs and chemotherapeutic agents (carmustine, doxorubicin, carboplatin, temozolomide and paclitaxel), cells were grown to confluency in multi-well plates and exposed to starving media (DMEM without FBS) for 24h before beginning of the antagonist treatment. Cells were then incubated with MTT and treated exactly as described above. Cell viability was expressed as a percentage of optical density (OD) values obtained upon treatment relative to control.

MDA-MB-231 cells [5] = experiment: Drug-drug synergy experiments (MTT, combination index); format: cell-based, human; details: IC25 ratios, 72h, CalcuSyn
Protocol: Interactions (synergy, additive, antagonistic activities) between CP-B2RAs (FR173657 and NG68) and chemotherapeutic drugs (doxorubicin and paclitaxel) were evaluated using MTT standard assays. Twenty-four hours after seeding, cells were treated with CP-B2RAs, the other testing drug, or in combination. For combination testing, CP-B2RAs or the other testing drugs were added to plate in triplicate wells in ratios of IC25 (IC25A: IC25B), and cells are incubated in drug-treated medium for 72h and cell viability determined by MTT. Synergy was determined by calculating combination index (CI) value with the formula CI = (CA,X / ICx,A) + (CB,X / ICx,B), where CA,X and CB,X are concentrations of drug A and drug B used in combination to achieve x% drug effect. ICx,A and ICx,B are concentrations for single agents to achieve the same effect. A CI of less than, equal to, and more than 1 indicates synergy, additivity, and antagonism, respectively.

MDA-MB-231 cells [6] = experiment: MTT cytotoxicity (cell viability) assay; format: cell-based, human; details: MTT assay after 72h drug exposure; means ± s.e.m., n = 6 to 8; read-out: IC50 values (cytocidal activity)
Protocol: as §1

CC(=O)Nc1ccc(/C=C/C(=O)NCC(=O)N(C)c2ccc(Cl)c(COc3cccc4ccc(C)nc34)c2Cl)cn1 [FR 173657]
Fold change BMP4 gene expression (MDA-MB-231 cells [1]): 1,50 fold
Fold change CCL20 gene expression (MDA-MB-231 cells [1]): 1,50 fold
Fold change CDKN1B (p27, Kip1) gene expression (MDA-MB-231 cells [1]): 1,70 fold
Fold change CDKN2B gene expression (MDA-MB-231 cells [1]): 1,80 fold
Fold change CDKN2C gene expression (MDA-MB-231 cells [1]): 2,20 fold
Fold change CDX1 gene expression (MDA-MB-231 cells [1]): 1,80 fold
Fold change CEBPB gene expression (MDA-MB-231 cells [1]): 1,70 fold
Fold change CTSD gene expression (MDA-MB-231 cells [1]): 1,60 fold
Fold change CXCL9 gene expression (MDA-MB-231 cells [1]): 1,70 fold
Fold change EGR1 gene expression (MDA-MB-231 cells [1]): 1,60 fold
Fold change HOXB1 gene expression (MDA-MB-231 cells [1]): 1,60 fold
Fold change MMP10 gene expression (MDA-MB-231 cells [1]): 3,50 fold
Fold change NAIP gene expression (MDA-MB-231 cells [1]): 1,50 fold
Fold change NOS2A gene expression (MDA-MB-231 cells [1]): –1,50 fold
Fold change PECAM1 gene expression (MDA-MB-231 cells [1]): 3,90 fold
Fold change TFRC gene expression (MDA-MB-231 cells [1]): –1,50 fold
colony formation (antagonist effect) (MDA-MB-231 cells [2]): concentration-responsive clonal repression
cell cycle distribution (MDA-MB-231 cells [3]): tend to induce G0/G1 cell cycle arrest
cytostatic activity after B2R downregulation (MDA-MB-231 cells [4]): significantly attenuated
combination index (CI) (MDA-MB-231 cells [5]; combination with doxorubicin): below 1
combination index (CI) (MDA-MB-231 cells [5]; combination with paclitaxel): below 1
IC50 (MDA-MB-231 cells [6]): 20 ± 1 µM
